# Experimental data from US20230279016A1, “Tetrahydropyrazolopyrimidines and Related Analogs for Inhibiting YAP/TAZ-TEAD” (THE KATHOLIEKE UNIVERSITEIT LEUVEN, priority 2021, published 2023).
# System: YAP/TAZ-TEAD transcription
# Assay: Reporter gene assay for measuring the inhibition of YAP/TAZ-TEAD transcription (TEAD-responsive element luciferase reporter in Hek293T cells)
# Assay type: cell-based
# Details: Hek293T cells transiently transfected with TEAD-responsive element luciferase reporter, 24 hours incubation
# Description: Hek293T cells are cultured in DMEM supplemented with 10% fetal bovine serum, Sodium pyruvate, Sodium bicarbonate, L-glutamine. The cells are harvested and transiently transfected with TEAD-responsive element luciferase reporter. Transfected cells are plated in 384-wells plate containing pre-diluted compounds. After 24 hours incubation at 37° C./5%CO2, assay plates were cooled down to RT and levelled to an equal volume per well, prior to the addition of 25 uL luciferase substrate SteadyLite (Perkin Elmer)/well. The plate was shaken for 10 min at 600 rpm, centrifuged for 1min at 500 rpm and measured with an Envision reader (PerkinElmer). The amount of relative light units produced by the TEAD reporter is used to calculated percent of inhibition.
# The percent of reporter inhibition was calculated in the presence of a positive control inhibitor (100% inhibition) versus a condition with the presence of the vehicle basal activity of the reporter (0% inhibition). The ability of a test compound to inhibit this activity was determined as:
# Percentage inhibition=[1-((RLU determined in the presence of vehicle—RLU determined for sample with test compound present) divided by (RLU determined in the presence of vehicle — RLU determined for sample with positive control inhibitor))] * 100
# The activities of the example compounds tested are depicted in the table below. The activity ranges A, B and C refer to EC50 values in the reporter gene assay as described as follows: “A”: EC50 <1 μM; “B” : 1 μM≤EC50≤20 μM and “C” : EC50>20 μM, NT=not tested.
EC50,"EC50 (Homo sapiens, HEK-293T, 24 h)",Compound
< 1000 nM,–,"C=CC(=O)NCC1CN(c2ccc(C(F)(F)F)cc2)c2cc(C3CC3)nn2C1 (single isomer, unassigned) [Cpd. No. 031-En1, (R)- or (S)-N-((2-cyclopropyl-4-(4-(trifluoromethyl)phenyl)-4,5,6,7-tetrahydropyrazolo[1,5-a]pyrimidin-6-yl)methyl)acrylamide]"
< 1000 nM,–,"C=CC(=O)NCC1CN(c2ccc(C(F)F)nc2)c2ccnn2C1 (single isomer, unassigned) [Cpd. No. 010-En2, (R)- or (S)-N-((4-(6-(difluoromethyl)pyridin-3-yl)-4,5,6,7-tetrahydropyrazolo[1,5-a]pyrimidin-6-yl)methyl)acrylamide]"
1000 to 20000 nM,–,"C=CC(=O)NCC1CN(c2cccc(F)c2)c2ccnn2C1 (single isomer, unassigned) [Cpd. No. 004-En1, (R)- or (S)-N-((4-(3-fluorophenyl)-4,5,6,7-tetrahydropyrazolo[1,5-a]pyrimidin-6-yl)methyl)acrylamide]"
< 1000 nM,–,"C=CC(=O)NCC1CN(c2ccc(C(F)(F)F)cc2)c2ccnn2C1 (single isomer, unassigned) [Cpd. No. 002-En2, (R)- or (S)-N-((4-(4-(trifluoromethyl)phenyl)-4,5,6,7-tetrahydropyrazolo[1,5-a]pyrimidin-6-yl)methyl)acrylamide]"
–,> 20000 nM,"C#CCN1CC(CNC(=O)C=C)Cn2nccc21 (stereo not drawn) [Cpd. No. 057, N-((4-(prop-2-yn-1-yl)-4,5,6,7-tetrahydropyrazolo[1,5-a]pyrimidin-6-yl)-methyl)acrylamide]"
< 1000 nM,–,"C=CC(=O)NC1CN(c2ccc(C(F)(F)F)cc2)c2ccnn2C1 (single isomer, unassigned) [Cpd. No. 061-En2, (R)- or (S)-N-(4-(4-(trifluoromethyl)phenyl)-4,5,6,7-tetrahydropyrazolo[1,5-a]pyrimidin-6-yl)acrylamide]"
1000 to 20000 nM,–,"C=CC(=O)NCC1CN(c2ccc(-c3ccccc3)cc2)c2ccnn2C1 (stereo not drawn) [Cpd. No. 017, N-((4-([1,1′-biphenyl]-4-yl)-4,5,6,7-tetrahydropyrazolo[1,5-a]pyrimidin-6-yl)methyl)acrylamide]"
–,> 20000 nM,"CN1CCC2(CN(c3ccc(C(F)(F)F)cc3)c3ccnn3C2)C1=O (single isomer, unassigned) [Cpd. No. 090-En1, (R)- or (S)-1′-methyl-4-(4-(trifluoromethyl)phenyl)-4,5-dihydro-7H-spiro[pyrazolo[1,5-a]pyrimidine-6,3′-pyrrolidin]-2′-one]"

# The remaining lines, values behind:
Compound,EC50,"EC50 (Homo sapiens, HEK-293T, 24 h)"
"C=CC(=O)NCC1CN(c2ccc(C(F)(F)F)c(F)c2)c2ccnn2C1 (single isomer, unassigned) [Cpd. No. 015-En2, (R)- or (S)-N-((4-(3-fluoro-4-(trifluoromethyl)phenyl)-4,5,6,7-tetrahydropyrazolo[1,5-a]pyrimidin-6-yl)methyl)acrylamide]",< 1000 nM,–
"C=CC(=O)NCC1CN(c2ccc(SC(F)(F)F)cc2)c2ccnn2C1 (stereo not drawn) [Cpd. No. 020, N-((4-(4-((trifluoromethyl)thio)phenyl)-4,5,6,7-tetrahydropyrazolo[1,5-a]pyrimidin-6-yl)methyl)acrylamide]",–,< 1000 nM
"CCC(=O)NCC1Cc2nn(C)cc2N(c2ccc(OC(F)(F)F)cc2)C1 (stereo not drawn) [Cpd. No. 075, N-((2-methyl-4-(4-(trifluoromethoxy)phenyl)-4,5,6,7-tetrahydro-2H-pyrazolo[4,3-b]pyridin-6-yl)methyl)propionamide]",–,1000 to 20000 nM
"C=CC(=O)NCC1CN(c2cccc(F)c2)c2ccnn2C1 (stereo not drawn) [Cpd. No. 004, N-((4-(3-fluorophenyl)-4,5,6,7-tetrahydropyrazolo[1,5-a]pyrimidin-6-yl)methyl)acrylamide]",–,< 1000 nM
"CNC(=O)C1CN(c2ccc(C(F)(F)F)cc2)c2ccnn2C1 (stereo not drawn) [Cpd. No. 092, N-methyl-4-(4-(trifluoromethyl)phenyl)-4,5,6,7-tetrahydropyrazolo[1,5-a]pyrimidine-6-carboxamide]",–,> 20000 nM
"C=CC(=O)NCC1CN(CC2CCCCC2)c2ccnn2C1 (stereo not drawn) [Cpd. No. 055, N-((4-(cyclohexylmethyl)-4,5,6,7-tetrahydropyrazolo[1,5-a]pyrimidin-6-yl)-methyl)acrylamide]",–,< 1000 nM
"C=CC(=O)NCC1CN(c2ccc(C(F)F)nc2)c2ccnn2C1 (stereo not drawn) [Cpd. No. 010, N-((4-(6-(difluoromethyl)pyridin-3-yl)-4,5,6,7-tetrahydropyrazolo[1,5-a]pyrimidin-6-yl)methyl)acrylamide]",< 1000 nM,–
"C=CC(=O)NCC1CN(c2ccc(Cl)cc2)c2ccnn2C1 (single isomer, unassigned) [Cpd. No. 005-En1, (R)- or (S)-N-((4-(4-chlorophenyl)-4,5,6,7-tetrahydropyrazolo[1,5-a]pyrimidin-6-yl)methyl)acrylamide]",< 1000 nM,–
"C=CC(=O)NCC1CN(c2ccc(C(F)(F)F)cc2)c2cc(C)nn2C1 (single isomer, unassigned) [Cpd. No. 029-En2, (R)- or (S)-N-((2-methyl-4-(4-(trifluoromethyl)phenyl)-4,5,6,7-tetrahydropyrazolo[1,5-a]pyrimidin-6-yl)methyl)acrylamide]",< 1000 nM,–
"C=CC(=O)NCC1CN(c2ccc(C(F)(F)F)cc2)c2cc(C3CC3)nn2C1 (single isomer, unassigned) [Cpd. No. 031-En2, (R)- or (S)-N-((2-cyclopropyl-4-(4-(trifluoromethyl)phenyl)-4,5,6,7-tetrahydropyrazolo[1,5-a]pyrimidin-6-yl)methyl)acrylamide]",< 1000 nM,–
"CS(=O)(=O)NCC1CN(Cc2cccc(C(F)(F)F)c2)c2ccnn2C1 (stereo not drawn) [Cpd. No. 054, N-((4-(3-(trifluoro-methyl)benzyl)-4,5,6,7-tetrahydropyrazolo[1,5-a]pyrimidin-6-yl)-methyl)methanesulfonamide]",–,> 20000 nM
"C=CC(=O)NC1CN(c2ccc(C(F)(F)F)c(F)c2)c2ccnn2C1 (stereo not drawn) [Cpd. No. 064, N-(4-(3-fluoro-4-(trifluoromethyl)phenyl)-4,5,6,7-tetrahydropyrazolo[1,5-a]pyrimidin-6-yl)acrylamide]",–,< 1000 nM
"C=CC(=O)NCC1CN(c2ccn(C)c(=O)c2)c2ccnn2C1 (single isomer, unassigned) [Cpd. No. 024-En1, (R)- or (S)-N-((4-(1-methyl-2-oxo-1,2-dihydropyridin-4-yl)-4,5,6,7-tetrahydropyrazolo[1,5-a]pyrimidin-6-yl)methyl)acrylamide]",–,> 20000 nM
"C=CC(=O)N1CCC2(C1)CN(c1ccc(C(F)(F)F)cc1)c1ccnn1C2 (single isomer, unassigned) [Cpd. No. 088-En2, (R)- or (S)-1-(4-(4-(trifluoromethyl)phenyl)-4,5-dihydro-7H-spiro[pyrazolo[1,5-a]pyrimidine-6,3′-pyrrolidin]-1′-yl)prop-2-en-1-one]",< 1000 nM,–
"C=CC(=O)NCC1CN(c2cccc(C(F)(F)F)c2)c2ccnn2C1 (stereo not drawn) [Cpd. No. 003, N-((4-(3-(trifluoromethyl)phenyl)-4,5,6,7-tetrahydropyrazolo[1,5-a]pyrimidin-6-yl)methyl)acrylamide]",–,< 1000 nM
"C=CC(=O)NCC1CN(c2ccc(C(F)(F)F)cc2)c2cc(C#N)nn2C1 (stereo not drawn) [Cpd. No. 033, N-((2-cyano-4-(4-(trifluoromethyl)phenyl)-4,5,6,7-tetrahydropyrazolo[1,5-a]pyrimidin-6-yl)methyl)acrylamide]",–,< 1000 nM
